Assay results from US12678472B2, “Method for selective recovery of hydrophobic compounds” (priority 2019, dated 2026).

Legend:
[1] = Solubility of CBD in ethanol:water mixtures
[2] = Capture of target molecule from solution by insoluble cross-linked cyclodextrin polymer (batch slurry, supernatant measured after filtration); settings: Example 9: 2 mg/mL CBD in 1:1 ethanol:water, 10:1 polymer:CBD
Experimental: A standard protocol was followed in all Examples with the variances from the standard protocol as described in each Example. The standard protocol included a plurality of steps. A mass of CBD was dissolved in ethanol to form a stock solution. A reference sample of the stock solution was diluted with ethanol to obtain a target CBD or other target molecule concentration for a reference measurement. A reaction sample was taken from the remaining stock solution. A cross-linked polysaccharide was combined with the reaction sample in a ratio relative to the CBD or other target molecule concentration present in the reaction sample (by mass) as specified in Examples. The cross-linked polymer is HDI-linked cyclodextrin prepared with a ratio of 8:1 HDI to cyclodextrin.
Water is combined with the reaction sample until the reaction sample reaches a target CBD or other target molecule concentration, and a target ethanol to water ratio. The reaction mixture including the water is filtered at a cutoff size of between 75 μm to 4,000 μm aperture size, or exposed to a magnetic field with a neodymium magnet through the wall of a flask, to retrieve the cross-linked polymer bound with CBD or other target molecule concentration. Once retrieved, the cross-linked polymer is flushed with a dissociation solvent for dissolving the target molecule. […]

C=C(C)[C@@H]1CCC(C)=C[C@H]1c1c(O)cc(CCCCC)cc1O [CBD, cannabidiol]
solubility of CBD ([1]; 40:60 EtOH:H2O, 2 mg/mL CBD): not fully dissolved
solubility of CBD ([1]; 45:56 EtOH:H2O, 2 mg/mL CBD): cloudy
solubility of CBD ([1]; 50:50 EtOH:H2O, EtOH added first then H2O): dissolves
solubility of CBD ([1]; Example 13: 6 mg/mL in 1:1 EtOH:H2O with sonication and heating): did not dissolve
percent of the CBD not in solution ([1]; Example 17: CBD in 3:7 EtOH:H2O): Ten
time to capture plateau [2]: about 5 minutes
